# PubChem BioAssay (NCI)
#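 GI50: concentration for 50% inhibition of growth. TGI is the concentration that stops growth completely.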
# Key:
# Test in all cases: NCI-60 cell line screen, 384-well format
# SF-295 CNS = tested on: SF-295 CNS
# HOP-62 NSCLC = tested on: HOP-62 NSCLC
# EKVX NSCLC = tested on: EKVX NSCLC
# HT29 colon = tested on: HT29 colon
# HCT-116 colon = tested on: HCT-116 colon
# OVCAR-3 ovarian = tested on: OVCAR-3 ovarian
# UO-31 renal = tested on: UO-31 renal
# NCI-H226 lung = tested on: NCI-H226 lung
# CCRF-CEM leukemia = tested on: CCRF-CEM leukemia
# SF-268 CNS = tested on: SF-268 CNS
# SF-539 CNS = tested on: SF-539 CNS
# DU-145 prostate = tested on: DU-145 prostate
# SN12C renal = tested on: SN12C renal
compound,measurement,setting,value
COCCOc1cnc2ccn([C@H](C)c3nnc4c(F)cc(-c5cnn(C)c5)cn34)c(=O)c2c1,GI50,SF-295 CNS,85.2 µM
same,TGI,SF-295 CNS,> 100 µM
same,GI50,HOP-62 NSCLC,> 100 µM
same,TGI,HOP-62 NSCLC,> 100 µM
same,GI50,EKVX NSCLC,> 100 µM
same,TGI,EKVX NSCLC,> 100 µM
same,GI50,HT29 colon,> 100 µM
same,TGI,HT29 colon,> 100 µM
same,GI50,HCT-116 colon,> 100 µM
same,TGI,HCT-116 colon,> 100 µM
same,GI50,OVCAR-3 ovarian,> 100 µM
same,TGI,OVCAR-3 ovarian,> 100 µM
same,GI50,UO-31 renal,> 100 µM
same,TGI,UO-31 renal,> 100 µM
same,GI50,NCI-H226 lung,> 100 µM
same,TGI,NCI-H226 lung,> 100 µM
same,GI50,CCRF-CEM leukemia,> 100 µM
same,TGI,CCRF-CEM leukemia,> 100 µM
same,GI50,SF-268 CNS,> 100 µM
same,TGI,SF-268 CNS,> 100 µM
same,GI50,SF-539 CNS,> 100 µM
same,TGI,SF-539 CNS,> 100 µM
same,GI50,DU-145 prostate,> 100 µM
same,TGI,DU-145 prostate,> 100 µM
same,GI50,SN12C renal,> 100 µM
same,TGI,SN12C renal,> 100 µM
